# System: MV-4-11 cells
# Assay: Gene expression microarray analysis (Affymetrix PrimeView) and GSEA
# Format: cell-based, human
# Design: RFU PODN (11730768_x_at) / Fold change /veh PODN (11730768_x_at) / RFU LINC00158 (11744669_a_at) / Fold change /veh LINC00158 (11744669_a_at) / RFU DUSP10 (11751237_a_at) / Fold change /veh DUSP10 (11751237_a_at) / RFU ID3 (11757404_x_at) / Fold change /veh ID3 (11757404_x_at) / RFU PLEKHG5 (11737974_s_at) / Fold change /veh PLEKHG5 (11737974_s_at) / RFU LRRC4B (11730491_at) / Fold change /veh LRRC4B (11730491_at) / RFU GIMAP4 (11747438_a_at) / Fold change /veh GIMAP4 (11747438_a_at) / RFU KRT8 (11758183_x_at) / Fold change /veh KRT8 (11758183_x_at) / RFU CNN1 (11734310_a_at) / Fold change /veh CNN1 (11734310_a_at) / RFU VPS37D (11726825_at) / Fold change /veh VPS37D (11726825_at) / RFU C10orf10 (11716522_x_at) / Fold change /veh C10orf10 (11716522_x_at) / RFU KIR2DL2 /// KIR2DL4 /// KIR2DL5A /// KIR2DL5B /// KIR2DS1 /// KIR2DS2 /// KIR2DS3 /// KIR2DS4 /// KIR3DL3 /// KIR3DL3 /// KIR3DS1 (11738374_at) / Fold change /veh KIR2DL2 /// KIR2DL4 /// KIR2DL5A /// KIR2DL5B /// KIR2DS1 /// KIR2DS2 /// KIR2DS3 /// KIR2DS4 /// KIR3DL3 /// KIR3DL3 /// KIR3DS1 (11738374_at) / RFU C1QL1 (11718748_at) / Fold change /veh C1QL1 (11718748_at) / RFU TMPRSS4 (11747572_a_at) / Fold change /veh TMPRSS4 (11747572_a_at) / RFU HAMP (11756126_x_at) / Fold change /veh HAMP (11756126_x_at) / RFU RNFT2 (11725882_a_at) / Fold change /veh RNFT2 (11725882_a_at) / RFU NR4A2 (11747474_a_at) / Fold change /veh NR4A2 (11747474_a_at) / RFU ABCC12 (11746883_a_at) / Fold change /veh ABCC12 (11746883_a_at) / RFU TMEM136 (11760407_x_at) / Fold change /veh TMEM136 (11760407_x_at) / RFU CLDN22 /// WWC2 (11732394_at) / Fold change /veh CLDN22 /// WWC2 (11732394_at) / RFU HLA-DPB1 (11760878_x_at) / Fold change /veh HLA-DPB1 (11760878_x_at) / RFU SPINT1 (11716480_a_at) / Fold change /veh SPINT1 (11716480_a_at) / RFU GAP43 (11754022_s_at) / Fold change /veh GAP43 (11754022_s_at) / RFU A4GNT (11735810_at) / Fold change /veh A4GNT (11735810_at) / RFU PRB3 (11715151_x_at) / Fold change /veh PRB3 (11715151_x_at) / RFU TUBB4B (11761932_at) / Fold change /veh TUBB4B (11761932_at) / RFU CAPN14 (11732068_a_at) / Fold change /veh CAPN14 (11732068_a_at) / RFU TMCC2 (11721928_a_at) / Fold change /veh TMCC2 (11721928_a_at) / RFU IRGQ (11745062_a_at) / Fold change /veh IRGQ (11745062_a_at) / RFU FAM174B (11720279_a_at) / Fold change /veh FAM174B (11720279_a_at) / RFU TMPRSS4 (11748680_a_at) / Fold change /veh TMPRSS4 (11748680_a_at) / RFU FAM212B (11763350_a_at) / Fold change /veh FAM212B (11763350_a_at) / RFU PLEKHG5 (11743358_a_at) / Fold change /veh PLEKHG5 (11743358_a_at) / RFU ZSCAN30 (11745921_a_at) / Fold change /veh ZSCAN30 (11745921_a_at) / RFU CMKLR1 (11741424_a_at) / Fold change /veh CMKLR1 (11741424_a_at) / RFU LOC101060620 /// MAPK8IP1 (11723275_at) / Fold change /veh LOC101060620 /// MAPK8IP1 (11723275_at) / RFU SPTSSB (11747773_x_at) / Fold change /veh SPTSSB (11747773_x_at) / RFU PRSS12 (11739890_at) / Fold change /veh PRSS12 (11739890_at) / RFU BIN1 (11741810_x_at) / Fold change /veh BIN1 (11741810_x_at) / RFU WNT11 (11732464_a_at) / Fold change /veh WNT11 (11732464_a_at) / RFU C10orf10 (11716521_a_at) / Fold change /veh C10orf10 (11716521_a_at) / RFU C5orf56 (11738089_at) / Fold change /veh C5orf56 (11738089_at) / RFU CYB561 (11721691_x_at) / Fold change /veh CYB561 (11721691_x_at) / RFU ANKRD19P (11752326_a_at) / Fold change /veh ANKRD19P (11752326_a_at) / RFU OR2T12 /// OR2T33 /// OR2T8 (11738714_s_at) / Fold change /veh OR2T12 /// OR2T33 /// OR2T8 (11738714_s_at) / RFU VCAN (11748164_a_at) / Fold change /veh VCAN (11748164_a_at) / RFU JSRP1 (11732532_at) / Fold change /veh JSRP1 (11732532_at) / RFU KRTAP10-11 (11738290_x_at) / Fold change /veh KRTAP10-11 (11738290_x_at) / RFU MYO3A (11730013_a_at) / Fold change /veh MYO3A (11730013_a_at) / RFU EBF3 (11725865_a_at) / Fold change /veh EBF3 (11725865_a_at) / RFU CAMK2N1 (11719241_x_at) / Fold change /veh CAMK2N1 (11719241_x_at) / RFU C5orf56 (11738088_a_at) / Fold change /veh C5orf56 (11738088_a_at) / RFU OLFML3 (11715873_a_at) / Fold change /veh OLFML3 (11715873_a_at) / RFU LOC100653217 /// NTM (11731650_a_at) / Fold change /veh LOC100653217 /// NTM (11731650_a_at) / RFU MAPK11 (11762145_a_at) / Fold change /veh MAPK11 (11762145_a_at) / RFU FIZ1 (11724087_x_at) / Fold change /veh FIZ1 (11724087_x_at) / RFU OASL (11726364_x_at) / Fold change /veh OASL (11726364_x_at) / RFU SOX15 (11748057_x_at) / Fold change /veh SOX15 (11748057_x_at) / RFU CD79A (11719716_a_at) / Fold change /veh CD79A (11719716_a_at) / RFU HIST1H1D (11736915_at) / Fold change /veh HIST1H1D (11736915_at) / RFU CASKIN2 (11723855_a_at) / Fold change /veh CASKIN2 (11723855_a_at) / RFU LOC730098 (11760151_x_at) / Fold change /veh LOC730098 (11760151_x_at) / RFU OR4N2 (11742367_at) / Fold change /veh OR4N2 (11742367_at) / RFU PRRT2 (11749266_a_at) / Fold change /veh PRRT2 (11749266_a_at) / RFU SNX32 (11753110_a_at) / Fold change /veh SNX32 (11753110_a_at) / RFU CDHR5 (11726645_a_at) / Fold change /veh CDHR5 (11726645_a_at) / RFU RCAN1 (11760418_a_at) / Fold change /veh RCAN1 (11760418_a_at) / RFU FAM167A (11723789_a_at) / Fold change /veh FAM167A (11723789_a_at) / RFU FAM26E (11764081_at) / Fold change /veh FAM26E (11764081_at) / RFU ISYNA1 (11749810_s_at) / Fold change /veh ISYNA1 (11749810_s_at) / RFU ACY1 (11761880_at) / Fold change /veh ACY1 (11761880_at) / RFU 11764098_at / Fold change /veh 11764098_at / RFU SAMD14 (11745864_x_at) / Fold change /veh SAMD14 (11745864_x_at) / RFU NPB (11741838_a_at) / Fold change /veh NPB (11741838_a_at) / RFU TMPRSS6 (11731388_a_at) / Fold change /veh TMPRSS6 (11731388_a_at) / RFU KRTAP10-2 (11738614_at) / Fold change /veh KRTAP10-2 (11738614_at) / RFU ARHGAP8 /// PRR5-ARHGAP8 (11727945_x_at) / Fold change /veh ARHGAP8 /// PRR5-ARHGAP8 (11727945_x_at) / RFU KRTAP5-7 /// NADSYN1 (11734609_at) / Fold change /veh KRTAP5-7 /// NADSYN1 (11734609_at) / RFU RASL12 (11751679_a_at) / Fold change /veh RASL12 (11751679_a_at) / RFU CDKN2B (11736163_a_at) / Fold change /veh CDKN2B (11736163_a_at) / RFU PRF1 (11729649_at) / Fold change /veh PRF1 (11729649_at) / RFU, ZNF638 /// ZNF638-IT1 / Fold change vs veh, ZNF638 /// ZNF638-IT1 / RFU, PANK3 / Fold change vs veh, PANK3 / RFU, SH3YL1 / Fold change vs veh, SH3YL1 / RFU, ZEB2 / Fold change vs veh, ZEB2 / RFU, NRIP1 / Fold change vs veh, NRIP1 / RFU, PTTG1IP / Fold change vs veh, PTTG1IP / RFU, CAPN2 / Fold change vs veh, CAPN2 / RFU, MED14 / Fold change vs veh, MED14 / RFU, SNORA58 / Fold change vs veh, SNORA58 / RFU, C1orf63 / Fold change vs veh, C1orf63 / RFU, LRRFIP1 / Fold change vs veh, LRRFIP1 / RFU, NDUFAF7 / Fold change vs veh, NDUFAF7 / RFU, SLC12A2 / Fold change vs veh, SLC12A2 / RFU, IBTK / Fold change vs veh, IBTK / RFU, ESF1 / Fold change vs veh, ESF1 / Fold change vs veh, TMEM50B / RFU, TAOK1 / Fold change vs veh, TAOK1 / RFU, ACBD3 / Fold change vs veh, ACBD3 / RFU, TMA16 / Fold change vs veh, TMA16 / RFU, RWDD3 / Fold change vs veh, RWDD3 / RFU, BCAT1 / Fold change vs veh, BCAT1 / RFU, EDEM3 / Fold change vs veh, EDEM3 / RFU, TMEM33 / Fold change vs veh, TMEM33 / RFU, WDR75 / Fold change vs veh, WDR75 / RFU, AHCTF1 / Fold change vs veh, AHCTF1 / RFU, TFRC / Fold change vs veh, TFRC / RFU, ZDHHC17 / Fold change vs veh, ZDHHC17 / RFU, NOM1 / Fold change vs veh, NOM1 / RFU, ARL8B / Fold change vs veh, ARL8B / RFU, ZBTB11 / Fold change vs veh, ZBTB11 / RFU, TAMM41 / Fold change vs veh, TAMM41 / RFU, KIAA1704 /// LOC100996395 / Fold change vs veh, KIAA1704 /// LOC100996395 / RFU, ING1 / Fold change vs veh, ING1 / RFU, TRMT61B / Fold change vs veh, TRMT61B / RFU, FUBP3 / Fold change vs veh, FUBP3 / RFU, TP53 / Fold change vs veh, TP53 / RFU, TNKS2 / Fold change vs veh, TNKS2 / RFU, ZFP14 / Fold change vs veh, ZFP14 / RFU, ACTR2 / Fold change vs veh, ACTR2 / RFU, PPP3R1 / Fold change vs veh, PPP3R1 / RFU, PIK3R1 / Fold change vs veh, PIK3R1 / RFU, HNRNPA1 / Fold change vs veh, HNRNPA1 / RFU, RNF170 / Fold change vs veh, RNF170 / RFU, ZNF28 / Fold change vs veh, ZNF28 / RFU, RNGTT / Fold change vs veh, RNGTT / RFU, OGT / Fold change vs veh, OGT / RFU, BRD1 / Fold change vs veh, BRD1 / RFU, MARS / Fold change vs veh, MARS / RFU, ZNF655 / Fold change vs veh, ZNF655 / RFU, FAHD1 / Fold change vs veh, FAHD1 / RFU, BDP1 / Fold change vs veh, BDP1 / RFU, LRRCC1 / Fold change vs veh, LRRCC1 / RFU, ARID1A / Fold change vs veh, ARID1A / RFU, ZNF146 / Fold change vs veh, ZNF146 / RFU, ZNF330 / Fold change vs veh, ZNF330 / RFU, GPN3 / Fold change vs veh, GPN3 / RFU, C9orf123 / Fold change vs veh, C9orf123 / RFU, N4BP2L2 / Fold change vs veh, N4BP2L2 / RFU, ARFIP1 / Fold change vs veh, ARFIP1 / RFU, FAM179B / Fold change vs veh, FAM179B / RFU, BCL10 / Fold change vs veh, BCL10 / RFU, UHRF1BP1L / Fold change vs veh, UHRF1BP1L / RFU, BET1 / Fold change vs veh, BET1 / RFU, CNOT2 / Fold change vs veh, CNOT2 / RFU, ZNF268 / Fold change vs veh, ZNF268 / Fold change vs veh, ZNF507 / RFU, DGCR2 / Fold change vs veh, DGCR2 / RFU, WDSUB1 / Fold change vs veh, WDSUB1 / Fold change vs veh, HSP90B1 /// MIR3652 / RFU, ADSS / Fold change vs veh, ADSS / RFU, GK / Fold change vs veh, GK / RFU, ZNF148 / Fold change vs veh, ZNF148 / RFU, TAF9 / Fold change vs veh, TAF9 / RFU, SLC1A5 / Fold change vs veh, SLC1A5 / RFU, SLMO2 / Fold change vs veh, SLMO2 / RFU, ABCC4 / Fold change vs veh, ABCC4 / RFU, LOC101060439 /// RAP1B / Fold change vs veh, LOC101060439 /// RAP1B / RFU, RFX7 / Fold change vs veh, RFX7 / RFU, GTPBP10 / Fold change vs veh, GTPBP10 / RFU, CNEP1R1 / Fold change vs veh, CNEP1R1 / RFU, BIVM-ERCC5 /// ERCC5 / Fold change vs veh, BIVM-ERCC5 /// ERCC5 / RFU, ILF3 / Fold change vs veh, ILF3 / RFU 11762660_at / Fold change /veh 11762660_at / RFU VCAN (11757783_s_at) / Fold change /veh VCAN (11757783_s_at) / RFU DDX43 (11728927_at) / Fold change /veh DDX43 (11728927_at) / RFU KRT8 (11758188_x_at) / Fold change /veh KRT8 (11758188_x_at) / RFU NKD1 (11759106_at) / Fold change /veh NKD1 (11759106_at) / RFU SRD5A1 (11742802_a_at) / Fold change /veh SRD5A1 (11742802_a_at) / RFU TPSAB1 /// TPSB2 (11721975_s_at) / Fold change /veh TPSAB1 /// TPSB2 (11721975_s_at) / RFU GSTM3 (11746129_a_at) / Fold change /veh GSTM3 (11746129_a_at) / RFU IL23R (11737362_x_at) / Fold change /veh IL23R (11737362_x_at) / RFU TMEM51 (11727254_a_at) / Fold change /veh TMEM51 (11727254_a_at) / RFU PIWIL2 (11732686_x_at) / Fold change /veh PIWIL2 (11732686_x_at) / RFU ORM1 (11744905_x_at) / Fold change /veh ORM1 (11744905_x_at) / RFU CCDC152 (11743942_at) / Fold change /veh CCDC152 (11743942_at) / RFU ECM1 (11717891_a_at) / Fold change /veh ECM1 (11717891_a_at) / RFU IL23R (11748794_a_at) / Fold change /veh IL23R (11748794_a_at) / RFU TNFAIP8L3 (11732012_x_at) / Fold change /veh TNFAIP8L3 (11732012_x_at) / RFU MBOAT4 (11741988_at) / Fold change /veh MBOAT4 (11741988_at) / RFU 11764193_at / Fold change /veh 11764193_at / RFU TMEM53 (11763286_at) / Fold change /veh TMEM53 (11763286_at) / RFU MAGEB2 (11727129_at) / Fold change /veh MAGEB2 (11727129_at) / RFU TMEM200A (11744735_a_at) / Fold change /veh TMEM200A (11744735_a_at) / RFU CCDC152 (11751479_a_at) / Fold change /veh CCDC152 (11751479_a_at) / RFU FAM211A (11726209_a_at) / Fold change /veh FAM211A (11726209_a_at) / RFU RGS16 (11746705_a_at) / Fold change /veh RGS16 (11746705_a_at) / RFU VCAN (11755009_s_at) / Fold change /veh VCAN (11755009_s_at) / RFU RHOB (11743442_s_at) / Fold change /veh RHOB (11743442_s_at) / RFU RGS16 (11720943_a_at) / Fold change /veh RGS16 (11720943_a_at) / RFU RGS16 (11720944_at) / Fold change /veh RGS16 (11720944_at) / RFU, VPS4B / Fold change vs veh, VPS4B / RFU, CREB1 / Fold change vs veh, CREB1 / RFU, DNAJC13 / Fold change vs veh, DNAJC13 / RFU, GNAQ / Fold change vs veh, GNAQ / RFU, CDK5R1 / Fold change vs veh, CDK5R1 / RFU, ZRANB3 / Fold change vs veh, ZRANB3 / RFU, CUL4A / Fold change vs veh, CUL4A / RFU, CCNY / Fold change vs veh, CCNY / RFU, UFL1 / Fold change vs veh, UFL1 / RFU, COG3 / Fold change vs veh, COG3 / RFU, DIAPH2 / Fold change vs veh, DIAPH2 / RFU, SKA2 / Fold change vs veh, SKA2 / RFU, AFF3 / Fold change vs veh, AFF3 / RFU, LMF1 / Fold change vs veh, LMF1 / RFU, IPO11 / Fold change vs veh, IPO11 / RFU, DFFB / Fold change vs veh, DFFB / RFU, FOXP1 / Fold change vs veh, FOXP1 / RFU, CARD8 / Fold change vs veh, CARD8 / RFU, STRN3 / Fold change vs veh, STRN3 / RFU, ADK / Fold change vs veh, ADK / RFU, RASSF2 / Fold change vs veh, RASSF2 / RFU, WIPF1 / Fold change vs veh, WIPF1 / RFU, LARP1B / Fold change vs veh, LARP1B / RFU, RASA1 / Fold change vs veh, RASA1 / RFU, RB1 / Fold change vs veh, RB1 / RFU, PPFIA1 / Fold change vs veh, PPFIA1 / RFU, MAT2A / Fold change vs veh, MAT2A / RFU, CCT5 / Fold change vs veh, CCT5 / RFU, WDR92 / Fold change vs veh, WDR92 / RFU, CUX1 / Fold change vs veh, CUX1 / RFU, TTC7A / Fold change vs veh, TTC7A / RFU, TMEM135 / Fold change vs veh, TMEM135 / RFU, DEPTOR / Fold change vs veh, DEPTOR / RFU, CPM / Fold change vs veh, CPM / RFU, DNAJB6 / Fold change vs veh, DNAJB6 / RFU, CACNA2D3 / Fold change vs veh, CACNA2D3 / RFU, DTX4 / Fold change vs veh, DTX4 / RFU, TFCP2 / Fold change vs veh, TFCP2 / RFU, GMCL1 /// GMCL1P1 / Fold change vs veh, GMCL1 /// GMCL1P1 / RFU, AEBP2 / Fold change vs veh, AEBP2 / RFU, SNHG1 /// SNORD22 /// SNORD25 /// SNORD26 /// SNORD27 /// SNORD28 /// SNORD29 /// SNORD31 / Fold change vs veh, SNHG1 /// SNORD22 /// SNORD25 /// SNORD26 /// SNORD27 /// SNORD28 /// SNORD29 /// SNORD31 / Fold change (Aza/veh), C12orf56 (ProbeSet 11735607_a_at) / Fold change (ACY-1035/veh), C12orf56 (ProbeSet 11735607_a_at) / Fold change (Aza/veh), FGFR1OP (ProbeSet 11751329_s_at) / Fold change (ACY-1035/veh), FGFR1OP (ProbeSet 11751329_s_at) / Fold change (Aza/veh), VPS36 (ProbeSet 11739960_a_at) / Fold change (ACY-1035/veh), VPS36 (ProbeSet 11739960_a_at) / RFU SYPL1 (11715823_x_at) / Fold change /veh SYPL1 (11715823_x_at) / RFU IGFBP7 (11715501_s_at) / Fold change /veh IGFBP7 (11715501_s_at) / RFU REEP3 (11722064_at) / Fold change /veh REEP3 (11722064_at) / RFU IGLL1 (11728026_x_at) / Fold change /veh IGLL1 (11728026_x_at): dose or concentration left out as unconfirmed
# Conditions: ProbeSet 11732281_s_at; LIST D
smiles,measurement,value
Nc1ccc(-c2cccs2)cc1NC(=O)c1ccc2c(c1)cc(C1CC1)n2CCN1CCOCC1 [ACY-1035],"Fold change vs veh, FOXP1",0.88
